{
  "source": "patent US20240092814A1",
  "about": "“WATER-SOLUBLE Pd(II) COMPLEX, METHOD FOR SYNTHESIZING SAME, AND USE THEREOF AS [sequence] PRECURSOR” (priority 2022, published 2024)",
  "key": {"pH of aqueous solution": {"test": "pH of aqueous solution", "type": "physicochemical", "conditions": "concentration of 100 g/L", "description": "(§1) The pH of the solution at a concentration of 100 g/L is about 4-5."}, "[1]": {"test": "Solubility in pure water at room temperature", "type": "physicochemical", "description": "as §1"}, "[2]": {"test": "Stability of aqueous solution (colour change, precipitation)", "type": "physicochemical", "description": "as §1"}, "[3]": {"test": "Solid-state stability and thermal decomposition (TG-DTA)", "type": "physicochemical", "description": "(3) Its solid state is stable at room temperature. In the simulated air atmosphere and nitrogen, a thermal decomposition reaction can occur at a lower temperature (<190° C.) to generate palladium metal (see FIG. 2 and FIG. 3), which can reduce energy consumption in the thermal reduction or calcination process of catalyst preparation. Moreover, the decomposition products are Pd, CO2, N2 and H2O, facilitating clean production and environmental protection.\nFIG. 2: a thermogravimetric curve (TG-DTA) of (NH4)2[Pd(NO2)2(C2O4)]·2H2O of the present disclosure in simulated air.\nFIG. 3: a thermogravimetric curve (TG-DTA) of (NH4)2[Pd(NO2)2(C2O4)]·2H2O of the present disclosure in nitrogen."}, "[4]": {"conditions": "background statement; cited from earlier work"}},
  "note": "Like-named read-outs stand apart in the source and are kept apart here.",
  "data": [
    {"smiles": "O=C1[O][Pd]([N+](=O)[O-])([N+](=O)[O-])[O]C1=O", "note": "[Pd-X6, ammonium dinitrooxalato palladium(II)]", "values": [
      {"measurement": "pH of the solution", "setting": "pH of aqueous solution", "value": "4-5"},
      {"measurement": "solubility", "setting": "[1]", "value": "> 400", "unit": "mg/mL"},
      {"measurement": "solubility in pure water, equivalent Pd", "setting": "[1]", "value": "> 120", "unit": "g Pd/L"},
      {"measurement": "stability in water", "setting": "[2]; 60° C. for 5 hours", "value": "color of the solution does not change and no precipitation is observed"},
      {"measurement": "stability in water", "setting": "[2]; room temperature for 2 days", "value": "color of the solution does not change and no precipitation is observed"},
      {"measurement": "solid state stability", "setting": "[3]; room temperature", "value": "stable"},
      {"measurement": "thermal decomposition temperature to palladium metal", "setting": "[3]; simulated air atmosphere and nitrogen", "value": "< 190", "unit": "°C"}
    ]},
    {"smiles": "O=[N+]([O-])[O-].O=[N+]([O-])[O-].[Pd+2]", "note": "[Palladium nitrate solution, palladium nitrate]", "values": [
      {"measurement": "stability in water", "setting": "[4]", "value": "unstable in water"}
    ]},
    {"smiles": "O.O.O=C([O-])C(=O)[O-].O=C([O-])C(=O)[O-].[NH4+].[NH4+].[Pd+2]", "note": "[(NH4)2[Pd(C2O4)2]·2H2O, ammonium bis(oxalato)palladium(II) dihydrate, reference compound]", "values": [
      {"measurement": "stability", "setting": "[3]; room temperature, self-redox reaction producing palladium metal", "value": "unstable"}
    ]}
  ]
}
